Patent US20180009764A1, “METHOD FOR TREATING MACROPHAGE MIGRATION INHIBITORY FACTOR (MIF)-IMPLICATED DISEASES AND CONDITIONS WITH IODO PYRIMIDINE DERIVATIVES” (UNIVERSITY OF LOUISVILLE RESEARCH FOUNDATION, INC., priority 2009, published 2018)

Legend:
[1] = test system: MDR1-MDCK monolayers; assay: MDR1-MDCK cell permeability and transport; type: in vitro ADME
Experimental: (§1) Cell permeability and transport mechanisms in Caco-2 and MDR1-MDCK monolayers experiments were performed in triplicate in the apical-to-basolateral and basolateral-to-apical direction using […]® wells containing either Caco-2 or MDR1-MDCK monolayers. A modified Hanks buffer pH 7.4 was used in both reservoir and receiver wells with the addition of 1% BSA in the receiver side. Confluent monolayers were used and their integrity was verified using reference compounds (Atenolol as a low permeability reference compound and Propanolol as a high permeability reference compound). A sample in the basolateral and apical sides was taken after 2 hours and the concentration measured by LC/MS-MS.

[2] = test system: Du 145; assay: Inhibition of tumor cells proliferation (CellTiter Glo); type: cell-based; settings: Homo sapiens, 72 hours
Experimental: Inhibition of the proliferation of tumor cells was investigated in vitro in several tumor cell lines. Cells of the desired tumor cell line were plated at 2×10^5 cells/ml in 96 well plates. Twice the indicated concentrations of the compounds of the invention were added to cells the following day in an equal volume of media. 72 hours later, cells were lysed and subjected to ATP determination using the CellTiter Glo-Luminescent Cell Viability Assay kit (Promega, Madison, Wis.). Experiments were done in triplicate. Results for the inhibition of cells proliferation are reported as IC50 (the concentration leading to a 50% inhibition of proliferation of the cell population) and are listed in Table 6. FIGS. 3 and 4 show bar graphs comparing the IC50s of specific embodiments of compounds of the invention across multiple tumor cell lines.

[3] = test system: Chick Chorioallantoic Membrane (CAM); assay: Chick chorioallantoic membrane (CAM) assay, o ring; type: in vivo; settings: for Blood Vessel Density: o ring
Experimental: (§2) 8 groups with 10 embryos in each group were used in the experiment described below. Fresh fertile eggs were incubated for 3 days in a standard egg incubator at 37° C. for 3 days. On Day 3, eggs were cracked under sterile conditions and embryos were placed into 20×100 mm plastic plates and cultivated at 37° C. in an embryo incubator with a water reservoir on the bottom shelf. Air was continuously bubbled into the water reservoir using a small pump so that the humidity in the incubator is kept constant. On Day 6, a sterile silicon “o” ring was placed on each CAM and test compound dissolved in 0.5% methylcellulose was placed into each “o” ring in a sterile hood. Paclitaxel was used as a positive control. Embryos were returned to the incubator after addition of test material. Control embryos received 10 μL of vehicle alone. On Day 8, embryos were removed from the incubator and kept at room temperature while blood vessel density were determined under each “o” ring using an image capturing system at a magnification of 160×. The blood vessel density was measured using an angiogenesis scoring system in that arithmetic numbers 0 to 5 (or exponential numbers 1 to 32) are used to indicate number of blood vessels present at the treatment sites on the CAM. Number 5 represents the highest density and 0 represents no angiogenesis. The percent of inhibition at each dosing site was calculated using the score recorded for that site divided by the mean score obtained from the appropriate control samples for each individual experiment. The percent of inhibition for each dose of a given compound was calculated by pooling all results obtained for that dose from 8-10 embryos.

[4] = in vitro; type: in vitro ADME; settings: human, plasma, Human Plasma Protein Binding % Bound
Excerpt: Plasma protein binding was ascertained using dialysis equilibrium methods known in the art.

[5] = Pharmacokinetics parameters in rats; type: in vivo; settings: rat, plasma
Experimental: The pharmacokinetic parameters of several compounds were investigated in rodents. Both oral and iv administration were investigated in rats. Blood samples were collected over time; plasma was analyzed using an LC/MS-MS method. Pharmacokinetic parameters were calculated using Win-NonLin. Terminal plasma half-lives were 7.10 hr for ACT-MIF-001, 1.66 hr for ACT-MIF-002, and 1.50 hr for ACT-MIF-003. […] The volume of distribution values were 72666 mL/kg for ACT-MIF-001, 2118 mL/kg for ACT-MIF-002, and 1926 mL/kg for ACT-MIF-003.

[6] = target: T1, MIF (Homo sapiens, UniProt P14174); assay: MIF cell lysate enzymatic inhibition; type: biochemical; settings: cell lysates
T1 construct: the enzymatic activity of MIF present in cell lysates; endogenous in cells
T1 sequence (P14174 2-115 limits assumed): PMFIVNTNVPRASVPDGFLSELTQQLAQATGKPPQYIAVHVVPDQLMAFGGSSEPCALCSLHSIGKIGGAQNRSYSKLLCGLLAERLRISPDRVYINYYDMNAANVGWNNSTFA
Experimental: Normal or transformed cell lysates can be used to determine the concentration inhibiting the enzymatic activity of MIF present in cell lysates. Cells are cultured in the appropriate media to the required number of cells, collected, and lysed. Compounds to be characterized are solubilized in DMSO and serial dilutions are performed in order to obtain a range of concentrations including complete and no quantifiable inhibition.

[7] = test system: Caco-2 monolayers; assay: Caco-2 cell permeability and transport; type: in vitro ADME; design: Caco-2 Permeability Papp B-A / Caco-2 Permeability Papp A-B: unit not given here; settings: for Caco-2 Permeability Papp B-A: basolateral-to-apical
Experimental: as §1

[8] = Microsomal stability in human liver microsomes; type: in vitro ADME; settings: both, human, microsomes, pH 7.4
Experimental: Stability in human liver microsomes was tested over […] at 37° C. using pooled mixed gender human liver microsomes. Liver microsomes were prepared at 1.0 mg/ml of microsomal protein in a 100 mM potassium phosphate pH 7.4 buffer with 1 mM NADPH. The media was incubated at 37° C. with the compound in solution in DMSO. The concentration of the compound was followed by LC/MS-MS as a function of time. Samples were assayed at t=0, 30, 60 and 120 minutes. Testosterone was used as a positive control. The same experiment was performed with mouse liver microsomes instead of human liver microsomes.

[9] = test system: LOX-IMV1 tumor cell line; assay: Inhibition of cell migration (Oris Cell Migration Assay); type: cell-based; settings: 72 hrs, even at low concentrations (0.03 μM), FIG. 7
Experimental: The LOX-IMV1 tumor cell line was used to determine the inhibition of cell migration using the Oris Cell Migration Assay kit (Promega, Mich.). Briefly, adherent cells were seeded into each well of the kit according to kit instructions. Concentrations of cells in the migration zone were determined to calculate IC50 values. Prior to the migration assay, cell proliferation IC50s were determined to differentiate between inhibition of proliferation and migration. […] A slightly modified method was also used to determine the inhibition of invasion.

[10] = test system: Chick Chorioallantoic Membrane (CAM); assay: CAM assay with matrigel plugs; type: in vivo
Experimental: as §2
Another experiment was performed using a protocol similar to the one described above but using matrigel plugs instead of o ring to deliver the test material to the CAM. Results are summarized in Table 9 below and show a statistically significant inhibition of angiogenesis at the high concentrations of test material.

[11] = Caco-2 cell permeability and transport; type: in vitro ADME; design: Caco-2 Permeability Papp B-A / Caco-2 Permeability Papp A-B: unit not given here; settings: human, Caco-2, pH 7.4
Experimental: as §1

[12] = test system: p53; assay: p53 up regulation, p53 luciferase assay; type: cell-based; settings: 10 μM; FIG. 5
Experimental: The up regulation of p53 was determined using a commercially available p53 luciferase assay kit. 1×10^5 cells/ml were plated in a 24 well plate and allowed to adhere overnight. MIF antagonists were added to the cells at the indicated concentrations for 16 hours and transiently co-transfected with 0.125 μg/well of p53-responsive luciferase promoter plasmid (Promega, Madison, Wis.) together with 0.0125 μg/well Renilla pRL-null plasmid (Promega) using Lipofectamine (Invitrogen) transfection reagent. After 24 hrs, Firefly and Renilla luciferase activities were measured by the Dual Luciferase Reporter Assay System (Promega, Madison, Wis.) on a TD-20/20 luminometer (Turner Designs).

Structure (SMILES)	IC50 [2]	IC50 [6]	Caco-2 Permeability Class [7]	Metabolic Stability in Human Microsomes % Remaining ([8]; 0 h)	Metabolic Stability in Human Microsomes % Remaining ([8]; 1 h)	efflux ratio at 2 h [11]	also measured
COc1ccc(-c2cc(I)ncn2)c(F)c1F [ACT-MIF-001, 4-Iodo-6-(2,3-difluoro-4-methoxyphenyl)pyrimidine]	< 10000 nM	37 nM	Low	100%	<2%	–	Brain penetration classification [1]: Low; P-gp Substrate [1]: No; Efflux ([1]; class in words): Low; Blood Vessel Density ([3]; 0.3 nM per CAM): 10.5 ± 3.4; Blood Vessel Density ([3]; 3 nM per CAM): 4.1 ± 0.8; Blood Vessel Density ([3]; 30 nM per CAM): 1.8 ± 0.3; Anti-angiogenic properties ([3]; CAM assay, in words): high anti-angiogenic properties; fraction unbound [4]: 0.017; Vd ([5]; intravenous, read-out: Volume of distribution): 72.7 L/kg; clearance ([5]; iv, after i.v. administration): 763 mL/min/kg; half-life ([5]; read-out: Terminal plasma half-life (converted)): 7.1 h; Caco-2 Permeability Papp A-B ([7]; apical-to-basolateral, pH 7.4, 2 hours): <0.1; Caco-2 Permeability Papp B-A ([7]; pH 7.4, 2 hours): <0.1
Ic1cc(-c2cccnc2)ncn1 [ACT-MIF-006, 4-Iodo-6-(pyridin-3-yl)pyrimidine]	36700 nM	250 nM	High	100%	82%	1.4	Inhibition of cell migration [9]: significant inhibition of migration; Blood Vessel Counts ([10]; 0.3 nM per CAM): 38.8 ± 3.5; Blood Vessel Counts ([10]; 3 nM per CAM): 35.8 ± 5.4; Blood Vessel Counts ([10]; 30 nM per CAM): 33.5 ± 1.7
Fc1ncccc1-c1cc(I)ncn1 [ACT-MIF-011, 4-Iodo-6-(2-fluoropyridin-3-yl)pyrimidine]	–	–	High	–	–	0.6	–
Fc1ccc(-c2cc(I)ncn2)c(F)c1 [ACT-MIF-017, 4-Iodo-6-(2,4-difluorophenyl)pyrimidine]	< 10000 nM	190 nM	–	100%	0%	–	–
CC(=O)Nc1cccc(-c2cc(I)ncn2)c1 [ACT-MIF-021, 4-Iodo-6-(3-acetylaminophenyl)pyrimidine]	–	570 nM	–	100%	73%	–	–
Ic1cc(-c2ccsc2)ncn1 [ACT-MIF-022, 4-Iodo-6-(thiophen-3-yl)pyrimidine]	< 40000 nM	–	–	–	–	–	–
Ic1cc(-c2cncc3ccccc23)ncn1 [ACT-MIF-025, 4-Iodo-6-(isoquinolin-4-yl)pyrimidine]	–	–	Low	–	–	1.5	–
Ic1cc(-c2cccs2)ncn1 [ACT-MIF-030, 4-Iodo-6-(thiophen-2-yl)pyrimidine]	–	–	–	–	–	–	Blood Vessel Counts ([10]; 0.3 nM per CAM): 35.6 ± 1.0; Blood Vessel Counts ([10]; 3 nM per CAM): 32.7 ± 3.2; Blood Vessel Counts ([10]; 30 nM per CAM): 28.1 ± 2.0; p53 regulation [12]: implicated in p53 regulation
CCOc1ccc(-c2cc(I)ncn2)cc1F [ACT-MIF-033]	< 5000 nM	115 nM	High	100%	82%	1.1	p53 regulation [12]: implicated in p53 regulation; Caco-2 Permeability Papp B-A ([7]; pH 7.4, 2 hours): 3.0
NC(=O)c1ccc(-c2cc(I)ncn2)cc1 [ACT-MIF-034, 4-Iodo-6-(4-aminocarbonylphenyl)pyrimidine]	< 100000 nM	270 nM	–	–	–	–	p53 regulation [12]: implicated in p53 regulation
Ic1cc(-c2ccnc3ccccc23)ncn1 [ACT-MIF-036, 4-Iodo-6-(quinolin-4-yl)pyrimidine]	–	230 nM	–	–	–	–	–
CC(=O)O[C@H]1C(=O)[C@@]2(C)[C@H]([C@H](OC(=O)c3ccccc3)[C@]3(O)C[C@H](OC(=O)[C@H](O)[C@@H](NC(=O)c4ccccc4)c4ccccc4)C(C)=C1C3(C)C)[C@]1(OC(C)=O)CO[C@@H]1C[C@@H]2O [Paclitaxel, reference compound]	–	–	–	–	–	–	Blood Vessel Counts ([10]; 2 nM per CAM): 15.5 ± 2.1; Blood Vessel Density ([3]; 6 nM per CAM): 2.8 ± 0.7
CC(=O)CC(c1ccccc1)c1c(O)c2ccccc2oc1=O (centres unmarked) [Warfarin, reference compound]	–	–	–	–	–	–	fraction unbound [4]: 0.01
